Measured values taken from patent publication US7718618B2, “Human cathelicidin antimicrobial peptides” (priority 2003, dated 2010).
Ends that are not written are not given here.

Assays:
[1] = test system: S. aureus mprF; assay: LL-37 incubated in sweat, radial diffusion assay against S. aureus mprF; assay type: cell-based, Staphylococcus aureus; details: protease inhibitor added during incubation, 37° C., 6 hr
Protocol: Antibacterial activity evaluated by radial diffusion assay against S. aureus mprF after incubation of LL-37 (32 uM) in sweat. a) Increase in the inhibition zone is seen when incubated in sweat but not 10 mM PBS or distilled water (DW). b) Diameters of inhibition zone after 6 hr incubation at 37° C. in (SWT buffer; sweat buffer salts alone), (PBS), (D.W.; distilled water), (SWT; sterile filtered human sweat at 37° C.), (SWT at 4° C.), (SWT with PI, with protease inhibitor cocktail). c) Action of specific protease inhibitors on gain of antimicrobial activity. […] N.E.I.=neutrophil elastase inhibitor, L.E.I.=leukocyte elastase inhibitor. Data are triplicate determinations±SEM from single experiment representative of 3.
Sweat collection and processing. Sweat was collected on paper tissues (Kimwipes, Kimberly-Clark, GA) from healthy volunteers after exercise. After collection, 20 ml of sweat was centrifuged at 2000 g for 15 min. at 4° C., filtered through a […] (Acrodisc syringe filter, […], low protein binding, Fisher scientific, Tustin, Calif.), and frozen at −80° C. […] Protein concentrations were evaluated by BCA assay (protein assay reagent, Pierce, Rockford, Ill.) or Bradford protein assay (Bio-Rad, Hercules, Calif.) according to manufacture's instructions. […]

[2] = test system: human erythrocytes; assay: Hemolysis assay on human whole blood; assay type: cell-based; details: peptide at 100 μM; relative to 0.1% Triton X-100
Protocol: Hemolysis Assay. Hemolytic activity was determined on human whole blood. Freshly obtained whole blood was washed 3× in PBS and resuspended in PBS at its original volume containing peptides at indicated concentrations. Samples were incubated at 37° C. for 1.5 to 3 h, and hemolysis determined by centrifuging at 300 g and measurement of the absorbance of the supernatant at 578 nm. Hemolytic activity of each peptide was expressed as the percentage of total hemoglobin released compared to that released by incubating with 0.1% Triton X-100.

[3] = test system: E. coli; assay: E. coli susceptibility to CRAMP with or without NaHCO3; assay type: cell-based
[4] = test system: antigen presentation; assay: Antigen presentation in vitro; assay type: cell-based
[5] = test system: Group B Strep (GBS); assay: Group B Strep susceptibility to CRAMP; assay type: cell-based; details: 16 μM peptide, without NaHCO3
[6] = test system: Salmonella; assay: Salmonella susceptibility to CRAMP; assay type: cell-based; details: 16 μM peptide, without NaHCO3
[7] = test system: Staphylococcus aureus; assay: S. aureus growth inhibition (turbidity OD600) with or without carbonate; assay type: cell-based
Protocol: Carbonate was identified as the antimicrobial enhancing factor in mammalian tissue culture media via serial deletion of Minimal Essential Media (MEM) components. Staphylococcus aureus was cultured in 20% Tryptic Soy Broth (TSB), 10% Fetal Bovine Serum (FBS) and 70% of various media or media components with, or without, 32 μM LL-37 to assess which components could increase antimicrobial activity. MEM buffers are 2200 mg/L NaHCO3, 140 mg/L NaH2PO4 and 6800 mg/L NaCl. MEM salts are 200 mg/L CaCl2, 400 mg/L KCl, 98 mg/L MgSO4. All solutions were adjusted to pH 7.4. Bacterial growth was measured as the change in turbidity at OD600 and percent inhibition was determined by comparing bacterial growth in the presence of peptide to that in the absence of peptide.
Inhibition of S. aureus was measured in 20% TSB, 10% FBS 1 mM NaH2PO4, 150 mM NaCl, with either 50 mM NaHCO3 or […] Glycine buffer at various pH.
Inhibition of Staph aureus growth in the presence of various concentrations of human (LL-37), murine (CRAMP) and porcine (PR-39). Cathelicidin antimicrobial peptides was measured in 20% TSB, 1 mM NaH2PO4, with, or without, […] NaHCO3 at pH 7.4.
The growth of S. aureus in the presence, or absence, of 32 μM LL-37 was measured in 20% TSB, 10% FBS, 1 mM NaH2PO4, 150 mM NaCl, and various concentrations of NaHCO3, all at pH 7.4. […] High concentrations of NaHCO3 retarded the growth of S. aureus. […]

[8] = test system: wild-type S. aureus (clinical isolate); assay: Radial diffusion assay against wild-type S. aureus; assay type: cell-based, Staphylococcus aureus
Protocol: (§1) As a positive control, synthetic LL-37 was applied to separate wells. After incubation at 37° C. overnight, the inhibition zones were recorded by CCD camera and diameters measured. To evaluate antimicrobial activity against wild-type S. aureus (clinical isolate), and enteroinvasive E. coli 029, both radial diffusion and solution killing assays were done. Radial diffusion assays were done as described for S. aureus mprF. Solution killing was done in 10% TSB in 10 mM PB (TSB=30 gm/L Tryptic Soy Broth, Sigma, St Louis Mo.; 20×PB=27.6 g/L NaH2PO4-H2O, 53.65 g/L Na2HPO4-7H2O, pH 7.4). Bacteria in log-phase growth were suspended to 1×10^6 cells/ml, peptide added and incubated at 37° C. for 2 hr. Bacteria were then plated on TSB agar (TSB, Bactoagar 13 g/L, Becton Dickinson, Sparks Md.) for direct colony count and determination of CFU.

[9] = test system: enteroinvasive E. coli 029; assay: Radial diffusion assay against E. coli O29; assay type: cell-based
Protocol: as §1

[10] = test system: Group A Streptococcus (NZ131); assay type: cell-based
Protocol: as §1
(§2) Activity against Group A Streptococcus (NZ131) was done only in solution assay as described. To evaluate antimicrobial activity in high salt conditions, solution assay was done in 10% TSB/10 mM PBS with several salt concentrations (concentration of NaCl; 10, 50, 100, 150, 300, 500 mM). Action against the C. albicans was determined in Dixon medium (0.6% Peptone, 4% Malt Extract, 1% Glucose, 0.1% Ox Bile, 1% Tween-80) in sterile 96-well microtiter plates (Corning Inc., Corning, N.Y.) at a final volume of […]. The assay mixtures contained 1-2.5×10^4 […] freshly grown Candida, 20% Dixon medium, 0.6 mM phosphate buffer pH 7, and […] chloramphenicol. Microtiter plates were incubated at 37° C. for 24 h with peptides, then plated on Dixon agar to determine the MFC (minimum fungicide concentration).

[11] = test system: C. albicans ATCC 14053; assay type: cell-based, Candida albicans
Protocol: as §2

[12] = test system: Staphylococcus aureus mprF; assay: Radial diffusion assay against S. aureus mprF; assay type: cell-based
Protocol: Antimicrobial assays. For screening of antimicrobial activity of HPLC fractions, radial diffusion assay was used. Lyophilized HPLC fractions were dissolved in DW (GibcoBRL, Grand Island, N.Y.), and tested against Staphylococcus aureus mprF. Thin plates (1 mm) of 1% agarose in 0.5% tryptone containing approximately 1×10^6 cells/ml of S. aureus mprF were used. 1 mm wells were punched in the plates and […] of samples dissolved in tissue culture grade sterile water were loaded in each well.
as §1

[13] = test system: S. aureus; assay: Release of cytoplasmic beta-galactosidase from S. aureus (membrane disruption); assay type: cell-based; details: with versus without NaHCO3
Text: Release of cytoplasmic expressed beta-galactosidase was measure from bacteria with and without the addition of NaHCO3.

[14] = 16 μM peptide in presence of NaHCO3
[15] = 16 μM peptide without SOM NaHCO3

Row | Compound | Radial Diffusion Assay S. aureus (wt), minimal inhibitory concentration (MIC) [8] | Radial Diffusion Assay E. coli (O29), minimal inhibitory concentration (MIC) [9] | Liquid Assay GAS (NZ131), minimal concentration required to kill [10] | Liquid Assay C. albicans ATCC 14053, minimal concentration required to kill [11] | Radial Diffusion Assay S. aureus MprF, minimal inhibitory concentration (MIC) [12] | other results
1 | NCCc1ccc(S(=O)(=O)F)cc1 [AEBSF] | – | – | – | – | – | blocking of the increase in antimicrobial activity of LL-37 in sweat [1]: most effective in blocking the increase in antimicrobial activity
2 | CC[C@H](C)[C@H](NC(=O)[C@H](CCCCN)NC(=O)[C@H](CCC(=O)O)NC(=O)[C@H](CCCCN)NC(=O)[C@H](CO)NC(=O)[C@H](CCCCN)NC(=O)[C@H](CCCNC(=N)N)NC(=O)[C@H](Cc1ccccc1)NC(=O)[C@H](Cc1ccccc1)NC(=O)[C@H](CC(=O)O)NC(=O)CNC(=O)[C@H](CC(C)C)NC(=O)[C@@H](N)CC(C)C)C(=O)NCC(=O)N[C@@H](CCCCN)C(=O)N[C@@H](CCC(=O)O)C(=O)N[C@@H](Cc1ccccc1)C(=O)N[C@@H](CCCCN)C(=O)N[C@@H](CCCNC(=N)N)C(=O)N[C@H](C(=O)N[C@H](C(=O)N[C@@H](CCC(N)=O)C(=O)N[C@@H](CCCNC(=N)N)C(=O)N[C@H](C(=O)N[C@@H](CCCCN)C(=O)N[C@@H](CC(=O)O)C(=O)N[C@@H](Cc1ccccc1)C(=O)N[C@@H](CC(C)C)C(=O)N[C@@H](CCCNC(=N)N)C(=O)N[C@@H](CC(N)=O)C(=O)N[C@@H](CC(C)C)C(=O)N[C@H](C(=O)N1CCC[C@H]1C(=O)N[C@@H](CCCNC(=N)N)C(=O)N[C@H](C(=O)N[C@@H](CCC(=O)O)C(=O)N[C@@H](CO)C(=O)O)[C@@H](C)O)C(C)C)[C@@H](C)CC)C(C)C)[C@@H](C)CC [LL-37] | – | – | – | – | – | % hemolysis [2]: 9%
3 | Aprotinin | – | – | – | – | – | blocking of the increase in antimicrobial activity of LL-37 in sweat [1]: most effective in blocking the increase in antimicrobial activity
4 | CRAMP | – | – | – | – | – | susceptibility of E. coli [3, 14]: became susceptible; susceptibility of E. coli [3, 15]: resistant; antigen presentation in vitro [4]: inhibits antigen presentation in vitro; susceptibility of Group B Strep (GBS) [5]: susceptible even without NaHCO3; susceptibility of Salmonella [6]: susceptible even without NaHCO3; susceptibility of S. aureus [7, 14]: became susceptible; susceptibility of S. aureus [7, 15]: resistant
5 | H-KSKEKIGKEFKRIVQRIKDFLRNLVPRTES-OH [KS-30] | 16 μm | 8 μm | 4 μm | 2 μm | 8 μm | action against wild-type S. aureus compared to LL-37 [8]: greatly increased action; action against E. coli compared to LL-37 [9]: greatly increased action
6 | H-RKSKEKIGKEFKRIVQRIKDFLRNLVPRTES-OH [RK-31] | 16 μm | 8 μm | 8 μm | 4 μm | 8 μm | action against wild-type S. aureus compared to LL-37 [8]: greatly increased action; action against E. coli compared to LL-37 [9]: greatly increased action
7 | KRIVQRIKDFLRNLVPRTES [KR-20] | >64 μm | >64 μm | 4 μm | 10 μm | 16 μm | –
8 | Polymyxin B | – | – | – | – | – | leakage of cytoplasmic protein (beta-galactosidase) [13]: induces greater leakage of cytoplasmic protein with carbonate
9 | SSLLEKGLDGAKKAVGGLGKLGKDAVEDLESVGKGAVHDVKDVLDSV (listed as Homo sapiens) [DCD, dermcidin antimicrobial peptide of human sweat, reference compound] | >64 μm | >64 μm | >64 μm | >32 μm | >64 μm | –
